Measurements: ChEMBL document CHEMBL4431358, “Flavonoids and biphenylneolignans with anti-inflammatory activity from the stems of Millettia griffithii” (Bioorg Med Chem Lett, 2016)
The source made the active and inactive calls. The calls are words filed in the database; no cut-off is given here.

Experiments:
RAW264.7 [1] = assay: Inhibition iNOS protein expression levels in LPS-induced mouse RAW264.7 cells at 4 uM by Western blot analysis; assay type: functional, cell-based
RAW264.7 [2] = assay: Inhibition iNOS mRNA expression levels in LPS-induced mouse RAW264.7 cells at 4 uM by RT-PCR analysis; assay type: functional, cell-based
RAW264.7 [3] = assay: Cytotoxicity against mouse RAW264.7 cells assessed as reduction in cell viability at 100 uM after 72 hrs by MTT assay; assay type: cell-based; conditions: raw264.7, 72 h
RAW264.7 [4] = assay: Antiinflammatory activity in mouse RAW264.7 cells assessed as inhibition of LPS-induced nitric oxide production at 50 uM preincubated for 1 hr followed by LPS stimulation for 24 hrs by Griess method; assay type: functional
RAW264.7 [5] = assay: Antiinflammatory activity in mouse RAW264.7 cells assessed as inhibition of LPS-induced nitric oxide production preincubated for 1 hr followed by LPS stimulation for 24 hrs by Griess method; assay type: functional, cell-based
RAW264.7 [6] = assay: Inhibition COX2 mRNA expression levels in LPS-induced mouse RAW264.7 cells at 1 to 4 uM by RT-PCR analysis; assay type: functional, cell-based
RAW264.7 [7] = assay: Inhibition iNOS protein expression levels in LPS-induced mouse RAW264.7 cells at 1 to 4 uM by Western blot analysis; assay type: functional, cell-based
RAW264.7 [8] = assay: Inhibition COX2 protein expression levels in LPS-induced mouse RAW264.7 cells at 1 to 4 uM by Western blot analysis; assay type: functional, cell-based
RAW264.7 [9] = assay: Inhibition iNOS mRNA expression levels in LPS-induced mouse RAW264.7 cells at 1 to 4 uM by RT-PCR analysis; assay type: functional, cell-based

IC50 (RAW264.7 [5]) [µM]	Compound	inhibition (RAW264.7 [1])	inhibition (RAW264.7 [2])	Activity (RAW264.7 [3])	inhibition at 50 µM (RAW264.7 [4]) [%]	inhibition (RAW264.7 [6])	inhibition (RAW264.7 [7])	inhibition (RAW264.7 [8])	inhibition (RAW264.7 [9])
	CC(=N)NCc1cccc(CN)c1	Active	Active						
35.7	COc1cc(OC)c2c(=O)c(-c3cc(OC)c(OCC=C(C)C)cc3OC)coc2c1			Non-Toxic	> 50				
2.1	COC1=CC(=O)C(CC=C(C)C)(CC=C(C)C)C(=O)/C1=C(N)\C=C\c1ccccc1			Non-Toxic	> 50	inactive	Active	inactive	Active
20.4	COC1=CC(=O)C(CC=C(C)C)(CC=C(C)C)C2=C1C(=O)C[C@@H](c1ccccc1)O2			Non-Toxic	> 50				
